Results on 31 compounds are retold here after US8633245B2, “PAI-1 inhibitor” (Institute of Medicinal Molecular Design, Inc., priority 2008, dated 2014).

The target of this experiment is T1, recombinant human PAI-1 (Homo sapiens, UniProt P05121).
T1 construct: purchased Molecular Innovations, Inc
As to the kind of experiment: Test Example 2: human PAI-1 inhibitory activity (tPA fluorogenic substrate, pH 7.4 HEPES buffer). Format: biochemical. The note with it: human PAI-1. On the procedure: 0.1 M HEPES, 0.1 M NaCl. 1 mM EDTA. 0.1% Polyethylene glycol 8,000 (Hampton Research Corporation),
2 mM Dimethyldecylphoshine oxide [Apo-10] (Fluka Corporation)

T1 sequence (P05121 24-402): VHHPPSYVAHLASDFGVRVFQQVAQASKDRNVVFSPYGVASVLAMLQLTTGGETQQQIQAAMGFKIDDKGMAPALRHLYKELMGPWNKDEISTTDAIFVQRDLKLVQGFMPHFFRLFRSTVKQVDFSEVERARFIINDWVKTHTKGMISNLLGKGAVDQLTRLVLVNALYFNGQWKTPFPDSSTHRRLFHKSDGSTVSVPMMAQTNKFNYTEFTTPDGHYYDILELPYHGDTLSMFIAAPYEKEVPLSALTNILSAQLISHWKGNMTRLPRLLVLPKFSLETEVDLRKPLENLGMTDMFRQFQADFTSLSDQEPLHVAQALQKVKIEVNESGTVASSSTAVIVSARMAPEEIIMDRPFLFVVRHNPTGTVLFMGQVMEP

On to `CC(C)(C)c1ccc(-c2ccc(CCC(=O)O)c(Oc3ccc(OC(F)(F)F)cc3)c2)cc1` [Compound 480], for which the “Inhibition Rate of PAI-1 Activity (%)” value (compound concentration 0.1 μM) is listed as 17%, the “Inhibition Rate of PAI-1 Activity (%)” value (compound concentration 0.3 μM) is recorded as 22%, the “Inhibition Rate of PAI-1 Activity (%)” value (compound concentration 1 μM) stood at 80% and the “Inhibition Rate of PAI-1 Activity (%)” value (compound concentration 3 μM) is reported as above 99%.
The like results for `CCCCc1ccc(Oc2cc(-c3ccc(OC(F)(F)F)cc3)ccc2OCC(=O)O)cc1` [Compound 481] were, in that order, 19%, 16%, 70% and above 99%.
On the same counts, the results for `CC(C)(C)c1ccc(Oc2cc(-c3cc(Cl)ccc3Cl)ccc2/C=C/C(=O)O)cc1` [Compound 483] are 0%, 8%, 76% and above 99%.
Take `CC(C)(C)c1ccc(Oc2cc(-c3cc(Cl)ccc3Cl)ccc2CCC(=O)O)cc1` [Compound 484]: the “Inhibition Rate of PAI-1 Activity (%)” value (compound concentration 0.1 μM) is 0%, the “Inhibition Rate of PAI-1 Activity (%)” value (compound concentration 0.3 μM) was determined as 7%, the “Inhibition Rate of PAI-1 Activity (%)” value (compound concentration 1 μM) amounted to 73% and the “Inhibition Rate of PAI-1 Activity (%)” value (compound concentration 3 μM) is given as above 99%.
For `CC(C)(C)c1ccc(Oc2cc(-c3cccc([N+](=O)[O-])c3)ccc2OCC(=O)O)cc1` [Compound 485], the “Inhibition Rate of PAI-1 Activity (%)” value is 0% (compound concentration 0.1 μM), 6% (compound concentration 0.3 μM), 11% (compound concentration 1 μM) and 69% (compound concentration 3 μM).
On the same counts, the results for `O=C(O)/C=C/c1ccc(-c2ccc(OC(F)(F)F)cc2)cc1OCCCOCc1ccccc1` [Compound 487] are 0%, 3%, 26% and 98%.
Take `O=C(O)CCc1ccc(-c2ccc(OC(F)(F)F)cc2)cc1OCCCOCc1ccccc1` [Compound 488]: the “Inhibition Rate of PAI-1 Activity (%)” value is, setting by setting: (compound concentration 0.1 μM) 0%; (compound concentration 0.3 μM) 10%; (compound concentration 1 μM) 36%; (compound concentration 3 μM) 91%.
On the same counts, the results for `O=C(O)/C=C/c1ccc(-c2ccc(OC(F)(F)F)cc2)cc1OCCCSc1ccccc1` [Compound 489] are 12%, 14%, 69% and above 99%.
On the same counts, the results for `CC(C)c1ccccc1Oc1cc(-c2ccc(OC(F)(F)F)cc2)ccc1/C=C/C(=O)O` [Compound 490] are 6%, 13%, 91% and above 99%.
The like results for `CC(C)c1ccccc1Oc1cc(-c2ccc(OC(F)(F)F)cc2)ccc1CCC(=O)O` [Compound 491] were, in that order, 6%, 10%, 66% and above 99%.
For the compound `O=C(O)COc1ccc(-c2ccc(OC(F)(F)F)cc2)cc1Oc1ccc(OCc2ccccc2)cc1` [Compound 492], the “Inhibition Rate of PAI-1 Activity (%)” value by setting is: (compound concentration 0.1 μM) 5%; (compound concentration 0.3 μM) 20%; (compound concentration 1 μM) above 99%; (compound concentration 3 μM) above 99%.
Turning to `Cc1cc(C)cc(Oc2cc(-c3ccc(C(C)(C)C)cc3)ccc2/C=C/C(=O)O)c1` [Compound 494], the “Inhibition Rate of PAI-1 Activity (%)” value by setting is: (compound concentration 0.1 μM) 9%; (compound concentration 0.3 μM) 24%; (compound concentration 1 μM) 87%; (compound concentration 3 μM) 92%.
The like results for `CC(C)(C)c1ccc(Oc2cc(-c3ccc(C(C)(C)C)cc3)ccc2/C=C/C(=O)O)cc1` [Compound 495] were, in that order, 8%, 64%, 98% and above 99%.
In the case of `Cc1cc(C)cc(-c2ccc(/C=C/C(=O)O)c(Oc3ccc(C(C)(C)C)cc3)c2)c1` [Compound 496], the “Inhibition Rate of PAI-1 Activity (%)” value runs as follows: (compound concentration 0.1 μM) 4%; (compound concentration 0.3 μM) 9%; (compound concentration 1 μM) 85%; (compound concentration 3 μM) above 99%.
As for `CC(C)(C)c1ccc(Oc2cc(-c3ccc(C(C)(C)C)cc3)ccc2CCC(=O)O)cc1` [Compound 497], the “Inhibition Rate of PAI-1 Activity (%)” value is reported as 3% (compound concentration 0.1 μM), 24% (compound concentration 0.3 μM), above 99% (compound concentration 1 μM) and above 99% (compound concentration 3 μM).
`Cc1cc(C)cc(-c2ccc(CCC(=O)O)c(Oc3ccc(C(C)(C)C)cc3)c2)c1` [Compound 498]: the “Inhibition Rate of PAI-1 Activity (%)” value runs as follows: (compound concentration 0.1 μM) 1%; (compound concentration 0.3 μM) 4%; (compound concentration 1 μM) 44%; (compound concentration 3 μM) above 99%.
On the same counts, the results for `Cc1cc(C)cc(Oc2cc(-c3ccc(C(C)(C)C)cc3)ccc2CCC(=O)O)c1` [Compound 499] are 15%, 14%, 77% and 98%.
On to `CC(Oc1cc(-c2ccc(OC(F)(F)F)cc2)ccc1/C=C/C(=O)O)c1ccccc1` (stereo not shown) [Compound 500], for which the “Inhibition Rate of PAI-1 Activity (%)” value (compound concentration 0.1 μM) came to 19%, the “Inhibition Rate of PAI-1 Activity (%)” value (compound concentration 0.3 μM) came out at 14%, the “Inhibition Rate of PAI-1 Activity (%)” value (compound concentration 1 μM) stood at 25% and the “Inhibition Rate of PAI-1 Activity (%)” value (compound concentration 3 μM) was 80%.
Consider `CC(Oc1cc(-c2ccc(OC(F)(F)F)cc2)ccc1CCC(=O)O)c1ccccc1` (stereo not shown) [Compound 501], for which the “Inhibition Rate of PAI-1 Activity (%)” value is 12% (compound concentration 0.1 μM), 0% (compound concentration 0.3 μM), 12% (compound concentration 1 μM) and 83% (compound concentration 3 μM).
`CC(C)(C)c1ccc(Oc2cc(-c3cccc(OC(F)(F)F)c3)ccc2/C=C/C(=O)O)cc1` [Compound 503]: the “Inhibition Rate of PAI-1 Activity (%)” value worked out at 13% (compound concentration 0.1 μM), 27% (compound concentration 0.3 μM), 97% (compound concentration 1 μM) and 93% (compound concentration 3 μM).
On the same counts, the results for `CC(C)(C)c1ccc(Oc2cc(-c3cccc(OC(F)(F)F)c3)ccc2CCC(=O)O)cc1` [Compound 504] are 13%, 26%, 91% and above 99%.
As for `O=C(O)/C=C/c1ccc(-c2ccc(OC(F)(F)F)cc2)cc1OC(c1ccccc1)c1ccccc1` [Compound 506], the “Inhibition Rate of PAI-1 Activity (%)” value (compound concentration 0.1 μM) is 2%, the “Inhibition Rate of PAI-1 Activity (%)” value (compound concentration 0.3 μM) worked out at 9%, the “Inhibition Rate of PAI-1 Activity (%)” value (compound concentration 1 μM) was determined as 78% and the “Inhibition Rate of PAI-1 Activity (%)” value (compound concentration 3 μM) is listed as above 99%.
On the same counts, the results for `O=C(O)CCc1ccc(-c2ccc(OC(F)(F)F)cc2)cc1OC(c1ccccc1)c1ccccc1` [Compound 507] are 6%, 8%, 49% and above 99%.
On to `O=C(O)CCc1ccc(-c2ccc(OC(F)(F)F)cc2)cc1OCCCSc1ccccc1` [Compound 508], for which the “Inhibition Rate of PAI-1 Activity (%)” value is given as 18% (compound concentration 0.1 μM), 9% (compound concentration 0.3 μM), 48% (compound concentration 1 μM) and 98% (compound concentration 3 μM).
On to `CC(C)c1ccc(Oc2cc(-c3ccc(OC(F)(F)F)cc3)ccc2/C=C/C(=O)O)cc1` [Compound 509], for which the “Inhibition Rate of PAI-1 Activity (%)” value reads like this: (compound concentration 0.1 μM) 1%; (compound concentration 0.3 μM) 22%; (compound concentration 1 μM) 96%; (compound concentration 3 μM) above 99%.
As to `CC(C)c1ccc(Oc2cc(-c3ccc(OC(F)(F)F)cc3)ccc2CCC(=O)O)cc1` [Compound 510], the “Inhibition Rate of PAI-1 Activity (%)” value is on record as 0% (compound concentration 0.1 μM), 8% (compound concentration 0.3 μM), 84% (compound concentration 1 μM) and above 99% (compound concentration 3 μM).
On the same counts, the results for `CCCCc1ccc(Oc2cc(-c3ccc(OC(F)(F)F)cc3)ccc2/C=C/C(=O)O)cc1` [Compound 511] are 11%, 68%, above 99% and above 99%.
The like results for `CCCCc1ccc(Oc2cc(-c3ccc(OC(F)(F)F)cc3)ccc2CCC(=O)O)cc1` [Compound 512] were, in that order, 18%, 41%, 96% and 98%.
Take `CC(C)c1ccccc1Oc1cc(-c2ccc(OC(F)(F)F)cc2)ccc1OCC(=O)O` [Compound 513]: the “Inhibition Rate of PAI-1 Activity (%)” value is recorded as 17% (compound concentration 0.1 μM), 7% (compound concentration 0.3 μM), 69% (compound concentration 1 μM) and above 99% (compound concentration 3 μM).
The like results for `CC(C)(C)c1cccc(Oc2cc(-c3cccc(OC(F)(F)F)c3)ccc2/C=C/C(=O)O)c1` [Compound 514] were, in that order, 21%, 22%, 96% and above 99%.
Turning to `CC(C)(C)c1cccc(Oc2cc(-c3cccc(OC(F)(F)F)c3)ccc2CCC(=O)O)c1` [Compound 515], the “Inhibition Rate of PAI-1 Activity (%)” value is 12% (compound concentration 0.1 μM), 16% (compound concentration 0.3 μM), 86% (compound concentration 1 μM) and above 99% (compound concentration 3 μM).
